For one compound, Ki results are on record in paper PMC8191317, “Structural and functional analysis of lignostilbene dioxygenases from Sphingobium sp. SYK-6” (The Journal of Biological Chemistry, 2021).

The target in the experiment is T1, LSD4 (Sphingobium sp. SYK-6, UniProt Z9AM74RXJ0).
T1 construct: residues 2-489 modelled; Fe2+ enzyme, Co-LSD4 for complexes
T1 sequence (Z9AM74RXJ0 1-489): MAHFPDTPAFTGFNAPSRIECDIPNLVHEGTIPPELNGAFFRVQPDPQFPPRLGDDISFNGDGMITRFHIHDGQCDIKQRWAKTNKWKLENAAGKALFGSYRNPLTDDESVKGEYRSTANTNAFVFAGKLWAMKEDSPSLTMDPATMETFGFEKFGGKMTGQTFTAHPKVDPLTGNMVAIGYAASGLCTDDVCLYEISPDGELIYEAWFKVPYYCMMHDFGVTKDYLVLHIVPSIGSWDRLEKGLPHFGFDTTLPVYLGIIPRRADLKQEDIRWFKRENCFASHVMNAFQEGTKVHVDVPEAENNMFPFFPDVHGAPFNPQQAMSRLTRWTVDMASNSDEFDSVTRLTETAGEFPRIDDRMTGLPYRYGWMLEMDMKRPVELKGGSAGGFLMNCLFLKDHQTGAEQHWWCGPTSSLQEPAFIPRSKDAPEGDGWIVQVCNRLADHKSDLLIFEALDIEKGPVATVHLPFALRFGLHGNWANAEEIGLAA
The experiment is described as follows: O2 electrode (oxygraph) inhibition kinetics. It counts as biochemical. Conditions: read-out: Kic.

In the case of `COc1cc(C=O)ccc1O` [vanillin], the Ki turned out to be 30 ± 8 µM.
